Results: ChEMBL document CHEMBL5244258, “PROTACs: New method to degrade transcription regulating proteins” (Eur J Med Chem, 2020)

Legend:
[1] = molecular target: T1, von Hippel-Lindau disease tumor suppressor/Bromodomain-containing protein 4 (Homo sapiens, UniProt O60885+P40337); test: Protac activity at VHL/BRD4 in human HeLa cells assessed as BRD4 degradation by Western blot analysis relative to control; format: cell-based
[2] = molecular target: T1, von Hippel-Lindau disease tumor suppressor/Bromodomain-containing protein 4; test: Protac activity at VHL/BRD4 in human HeLa cells assessed as BRD4 degradation at 1 uM by Western blot analysis relative to control; format: cell-based
[3] = molecular target: Bromodomain-containing protein 4 (Homo sapiens) (UniProt O60885); test: Induction of BRD4 degradation in human HeLa cells assessed as maximum efficacy at 1 uM relative to control; format: cell-based
[4] = molecular target: T1, von Hippel-Lindau disease tumor suppressor/Bromodomain-containing protein 4; test: Protac activity at BRD4/VHL (unknown origin) assessed as maximum efficacy relative to control
[5] = test system: MV4-11; test: Antiproliferative activity against human MV4-11 cells assessed as growth inhibition; format: functional, cell-based
[6] = molecular target: T2, von Hippel-Lindau disease tumor suppressor/SWI/SNF-related matrix-associated actin-dependent regulator of chromatin subfamily A member 2 (Homo sapiens, UniProt P51531+P40337); test: PROTAC activity at SMARCA2/VHL in human MV4-11 cells assessed as degradation of SMARCA2 measured for 24 hrs by Western blot analysis; format: cell-based
Target sequence in this assay (P51531 whole entry): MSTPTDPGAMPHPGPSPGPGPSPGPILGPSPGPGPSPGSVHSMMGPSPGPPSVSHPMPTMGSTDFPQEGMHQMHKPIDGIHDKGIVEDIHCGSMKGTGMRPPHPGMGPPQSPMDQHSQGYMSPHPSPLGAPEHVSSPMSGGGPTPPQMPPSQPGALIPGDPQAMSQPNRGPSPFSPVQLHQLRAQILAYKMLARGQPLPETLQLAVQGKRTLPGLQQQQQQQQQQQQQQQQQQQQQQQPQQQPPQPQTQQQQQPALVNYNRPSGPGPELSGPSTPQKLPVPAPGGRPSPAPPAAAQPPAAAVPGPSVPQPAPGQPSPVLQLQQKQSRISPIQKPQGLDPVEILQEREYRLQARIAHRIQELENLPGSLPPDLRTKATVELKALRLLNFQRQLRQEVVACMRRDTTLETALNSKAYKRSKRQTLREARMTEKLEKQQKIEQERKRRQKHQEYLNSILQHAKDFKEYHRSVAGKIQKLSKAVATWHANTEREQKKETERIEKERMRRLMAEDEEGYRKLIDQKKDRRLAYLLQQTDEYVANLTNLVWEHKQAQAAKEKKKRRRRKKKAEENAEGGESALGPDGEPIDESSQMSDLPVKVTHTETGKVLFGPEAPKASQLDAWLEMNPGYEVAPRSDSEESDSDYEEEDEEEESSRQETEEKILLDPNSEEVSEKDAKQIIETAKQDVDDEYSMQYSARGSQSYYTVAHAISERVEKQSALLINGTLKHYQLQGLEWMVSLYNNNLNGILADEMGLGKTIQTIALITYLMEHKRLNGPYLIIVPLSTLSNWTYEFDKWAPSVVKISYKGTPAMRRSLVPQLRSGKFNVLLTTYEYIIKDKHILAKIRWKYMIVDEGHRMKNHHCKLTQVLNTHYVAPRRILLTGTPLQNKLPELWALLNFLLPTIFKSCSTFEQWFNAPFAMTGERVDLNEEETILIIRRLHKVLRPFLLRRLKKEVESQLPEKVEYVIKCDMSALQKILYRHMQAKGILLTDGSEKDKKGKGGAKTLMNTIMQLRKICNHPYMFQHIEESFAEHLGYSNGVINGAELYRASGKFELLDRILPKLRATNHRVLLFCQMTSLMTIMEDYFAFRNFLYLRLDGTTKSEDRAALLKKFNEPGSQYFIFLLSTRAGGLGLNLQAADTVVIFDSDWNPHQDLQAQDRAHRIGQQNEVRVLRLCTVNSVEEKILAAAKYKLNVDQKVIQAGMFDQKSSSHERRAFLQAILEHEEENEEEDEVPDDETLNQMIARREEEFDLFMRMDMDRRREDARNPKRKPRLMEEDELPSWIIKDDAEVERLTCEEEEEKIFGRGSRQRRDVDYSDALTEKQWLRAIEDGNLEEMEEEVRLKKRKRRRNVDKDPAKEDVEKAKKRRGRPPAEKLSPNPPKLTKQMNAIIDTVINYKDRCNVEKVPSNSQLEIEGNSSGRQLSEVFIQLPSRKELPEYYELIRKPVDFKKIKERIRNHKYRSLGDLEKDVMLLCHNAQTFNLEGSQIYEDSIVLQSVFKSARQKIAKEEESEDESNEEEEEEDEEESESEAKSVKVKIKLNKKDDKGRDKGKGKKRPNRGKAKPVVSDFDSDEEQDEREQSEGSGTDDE
Target sequence in this assay (P40337 whole entry): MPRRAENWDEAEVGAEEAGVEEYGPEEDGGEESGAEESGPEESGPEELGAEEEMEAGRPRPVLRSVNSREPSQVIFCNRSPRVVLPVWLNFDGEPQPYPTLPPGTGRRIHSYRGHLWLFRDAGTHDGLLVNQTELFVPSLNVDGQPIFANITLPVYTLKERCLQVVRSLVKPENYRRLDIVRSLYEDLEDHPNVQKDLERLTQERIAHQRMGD

[7] = molecular target: T2, von Hippel-Lindau disease tumor suppressor/SWI/SNF-related matrix-associated actin-dependent regulator of chromatin subfamily A member 2; test: PROTAC activity at SMARCA2/VHL in human MV4-11 cells assessed as degradation of SMARCA2 by Western blot analysis; format: cell-based
Target sequence in this assay (P51531 whole entry): as the sequence (P51531 whole entry) above
Target sequence in this assay (P40337 whole entry): as the sequence (P40337 whole entry) above

[8] = molecular target: von Hippel-Lindau disease tumor suppressor/SWI/SNF-related matrix-associated actin-dependent regulator of chromatin subfamily A member 4 (Homo sapiens, UniProt P51532+P40337); test: PROTAC activity at SMARCA4/VHL in human MV4-11 cells assessed as degradation of SMARCA4 measured for 24 hrs by Western blot analysis; format: cell-based
von Hippel-Lindau disease tumor suppressor/SWI/SNF-related matrix-associated actin-dependent regulator of chromatin subfamily A member 4, sequence (P51532 whole entry): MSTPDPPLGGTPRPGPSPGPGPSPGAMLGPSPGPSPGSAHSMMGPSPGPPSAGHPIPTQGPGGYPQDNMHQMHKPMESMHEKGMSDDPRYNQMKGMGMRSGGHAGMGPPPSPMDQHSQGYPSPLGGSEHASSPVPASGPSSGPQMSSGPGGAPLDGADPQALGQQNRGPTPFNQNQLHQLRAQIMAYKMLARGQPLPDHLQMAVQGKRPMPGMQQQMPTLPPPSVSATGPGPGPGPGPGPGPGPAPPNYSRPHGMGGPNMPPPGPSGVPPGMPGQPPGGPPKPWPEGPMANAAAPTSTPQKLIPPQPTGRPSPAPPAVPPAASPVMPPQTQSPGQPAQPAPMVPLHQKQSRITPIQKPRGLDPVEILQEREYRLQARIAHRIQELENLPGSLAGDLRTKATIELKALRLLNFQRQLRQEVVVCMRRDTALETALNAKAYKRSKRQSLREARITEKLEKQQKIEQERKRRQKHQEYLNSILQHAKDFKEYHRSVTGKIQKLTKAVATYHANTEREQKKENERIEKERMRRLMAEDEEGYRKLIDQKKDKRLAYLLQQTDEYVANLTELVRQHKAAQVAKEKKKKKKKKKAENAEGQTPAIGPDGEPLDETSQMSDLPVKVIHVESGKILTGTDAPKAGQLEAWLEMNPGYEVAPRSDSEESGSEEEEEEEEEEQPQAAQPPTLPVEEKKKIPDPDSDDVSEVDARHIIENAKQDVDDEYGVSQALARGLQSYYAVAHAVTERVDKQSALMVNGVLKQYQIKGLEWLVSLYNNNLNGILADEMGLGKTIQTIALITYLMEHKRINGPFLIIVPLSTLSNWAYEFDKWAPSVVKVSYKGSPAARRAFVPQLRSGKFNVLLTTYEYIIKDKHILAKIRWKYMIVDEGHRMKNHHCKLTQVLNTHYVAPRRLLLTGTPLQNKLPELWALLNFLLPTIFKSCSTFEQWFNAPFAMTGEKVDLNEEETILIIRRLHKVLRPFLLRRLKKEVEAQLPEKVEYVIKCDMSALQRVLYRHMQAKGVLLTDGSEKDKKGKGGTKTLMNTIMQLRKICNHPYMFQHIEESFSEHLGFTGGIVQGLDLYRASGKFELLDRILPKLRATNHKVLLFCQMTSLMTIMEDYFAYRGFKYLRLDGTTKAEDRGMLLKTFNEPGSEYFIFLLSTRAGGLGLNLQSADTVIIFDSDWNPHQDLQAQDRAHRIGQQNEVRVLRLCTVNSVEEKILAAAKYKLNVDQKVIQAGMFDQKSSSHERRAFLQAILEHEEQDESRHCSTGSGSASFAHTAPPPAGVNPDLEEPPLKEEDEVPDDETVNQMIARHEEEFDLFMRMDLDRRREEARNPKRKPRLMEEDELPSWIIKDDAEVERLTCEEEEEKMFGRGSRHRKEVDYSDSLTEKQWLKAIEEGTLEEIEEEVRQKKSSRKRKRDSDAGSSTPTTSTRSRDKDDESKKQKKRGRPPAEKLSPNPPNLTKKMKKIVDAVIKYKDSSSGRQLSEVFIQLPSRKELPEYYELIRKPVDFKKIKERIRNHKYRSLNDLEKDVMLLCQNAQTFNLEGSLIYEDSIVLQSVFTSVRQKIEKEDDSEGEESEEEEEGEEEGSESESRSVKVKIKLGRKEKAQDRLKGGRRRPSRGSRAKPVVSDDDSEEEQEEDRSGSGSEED
von Hippel-Lindau disease tumor suppressor/SWI/SNF-related matrix-associated actin-dependent regulator of chromatin subfamily A member 4, sequence (P40337 whole entry): as the sequence (P40337 whole entry) above

[9] = molecular target: T2, von Hippel-Lindau disease tumor suppressor/SWI/SNF-related matrix-associated actin-dependent regulator of chromatin subfamily A member 2; test: PROTAC activity at SMARCA2/VHL in human MV4-11 cells assessed as degradation of SMARCA2 measured for 24 hrs by Western blot analysis relative to control; format: cell-based
[10] = test system: HCT-116; test: Antiproliferative activity against human HCT-116 cells assessed as reduction in cell viability measured for 48 hrs by MTT assay; format: functional
[11] = molecular target: T3, Androgen receptor (Homo sapiens, UniProt P10275); test: Induction of AR degradation in human HeLa cells; format: cell-based
T3 sequence (P10275 whole entry): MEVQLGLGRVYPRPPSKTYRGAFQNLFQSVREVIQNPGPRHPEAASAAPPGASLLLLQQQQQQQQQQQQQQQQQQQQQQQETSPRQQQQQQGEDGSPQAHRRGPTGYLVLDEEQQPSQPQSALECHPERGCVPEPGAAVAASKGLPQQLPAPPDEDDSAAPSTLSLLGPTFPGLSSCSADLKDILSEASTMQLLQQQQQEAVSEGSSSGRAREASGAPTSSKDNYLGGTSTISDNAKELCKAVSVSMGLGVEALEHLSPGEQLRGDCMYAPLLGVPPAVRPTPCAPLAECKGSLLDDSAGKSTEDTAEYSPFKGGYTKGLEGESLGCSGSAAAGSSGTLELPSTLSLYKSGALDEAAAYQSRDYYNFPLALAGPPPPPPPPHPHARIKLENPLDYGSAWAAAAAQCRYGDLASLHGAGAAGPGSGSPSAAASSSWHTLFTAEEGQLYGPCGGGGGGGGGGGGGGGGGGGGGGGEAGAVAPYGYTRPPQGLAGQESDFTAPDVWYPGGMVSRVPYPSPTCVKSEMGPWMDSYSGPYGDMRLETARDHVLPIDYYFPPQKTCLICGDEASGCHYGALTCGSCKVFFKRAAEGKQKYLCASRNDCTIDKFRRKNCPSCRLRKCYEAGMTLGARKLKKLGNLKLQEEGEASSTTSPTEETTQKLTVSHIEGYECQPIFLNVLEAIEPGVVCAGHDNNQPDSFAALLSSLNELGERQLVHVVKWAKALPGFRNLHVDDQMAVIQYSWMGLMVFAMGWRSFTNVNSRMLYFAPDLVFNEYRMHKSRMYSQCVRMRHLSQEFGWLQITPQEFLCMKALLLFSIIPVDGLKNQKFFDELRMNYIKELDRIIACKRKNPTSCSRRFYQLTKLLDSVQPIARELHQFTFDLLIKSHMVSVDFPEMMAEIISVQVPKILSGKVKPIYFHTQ

[12] = molecular target: T4, Estrogen receptor (Homo sapiens, UniProt P03372); test: Induction of estrogen receptor degradation in human MCF7; format: cell-based
T4 sequence (P03372 whole entry): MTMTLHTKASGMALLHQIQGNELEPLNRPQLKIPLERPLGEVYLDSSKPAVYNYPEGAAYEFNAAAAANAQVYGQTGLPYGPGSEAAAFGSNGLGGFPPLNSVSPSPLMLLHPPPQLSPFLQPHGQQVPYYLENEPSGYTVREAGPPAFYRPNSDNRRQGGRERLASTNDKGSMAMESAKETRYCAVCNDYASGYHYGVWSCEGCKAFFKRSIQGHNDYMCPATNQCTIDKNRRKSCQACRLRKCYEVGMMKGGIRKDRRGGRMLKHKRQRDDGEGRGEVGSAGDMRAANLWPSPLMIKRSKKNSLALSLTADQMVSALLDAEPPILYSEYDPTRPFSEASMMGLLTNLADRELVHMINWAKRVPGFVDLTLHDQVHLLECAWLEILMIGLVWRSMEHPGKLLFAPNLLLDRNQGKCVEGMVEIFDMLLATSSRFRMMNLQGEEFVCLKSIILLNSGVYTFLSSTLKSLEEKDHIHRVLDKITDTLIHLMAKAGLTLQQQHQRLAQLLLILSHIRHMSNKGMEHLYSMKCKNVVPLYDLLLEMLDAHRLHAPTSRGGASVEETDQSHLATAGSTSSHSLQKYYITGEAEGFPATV

[13] = molecular target: T5, Androgen receptor (Homo sapiens) (UniProt P10275); test: Induction of AR degradation in human HeLa cells assessed as maximum efficacy at 100 nM relative to control; format: cell-based
T5 sequence (whole entry): T3 sequence (P10275 whole entry)

[14] = molecular target: T5, Androgen receptor (Homo sapiens); test: Induction of AR degradation in human HeLa cells assessed as maximum efficacy at 3 nM relative to control; format: cell-based
[15] = molecular target: T6, Estrogen receptor (Homo sapiens) (UniProt P03372); test: Induction of estrogen receptor degradation in human MCF7 cells assessed as maximum efficacy relative to control; format: cell-based
T6 sequence (whole entry): T4 sequence (P03372 whole entry)

[16] = molecular target: T1, von Hippel-Lindau disease tumor suppressor/Bromodomain-containing protein 4; test: Protac activity at BRD4/VHL (unknown origin)
[17] = molecular target: T7, Bromodomain-containing protein 2 (Homo sapiens, UniProt P25440); test: Induction of BRD2 degradation (unknown origin)
[18] = molecular target: T7, Bromodomain-containing protein 2; test: Induction of BRD2 degradation (unknown origin) relative to control
[19] = molecular target: T8, von Hippel-Lindau disease tumor suppressor/Estrogen receptor (Homo sapiens, UniProt P03372+P40337); test: Protac activity at ER/VHL (unknown origin) degradation in human MCF7 cells assessed as maximum efficacy by immunoblotting analysis relative to control; format: cell-based
Target sequence in this assay (P40337 whole entry, looked up, one chain of several): as the sequence (P40337 whole entry) above

[20] = molecular target: von Hippel-Lindau disease tumor suppressor/Steroid hormone receptor ERR1 (Homo sapiens) (UniProt P11474+P40337); test: Protac activity at VHL/ERRalpha in human MCF7 cells assessed as maximum efficacy relative to control; format: cell-based
von Hippel-Lindau disease tumor suppressor/Steroid hormone receptor ERR1 (Homo sapiens), sequence (P11474 whole entry, looked up): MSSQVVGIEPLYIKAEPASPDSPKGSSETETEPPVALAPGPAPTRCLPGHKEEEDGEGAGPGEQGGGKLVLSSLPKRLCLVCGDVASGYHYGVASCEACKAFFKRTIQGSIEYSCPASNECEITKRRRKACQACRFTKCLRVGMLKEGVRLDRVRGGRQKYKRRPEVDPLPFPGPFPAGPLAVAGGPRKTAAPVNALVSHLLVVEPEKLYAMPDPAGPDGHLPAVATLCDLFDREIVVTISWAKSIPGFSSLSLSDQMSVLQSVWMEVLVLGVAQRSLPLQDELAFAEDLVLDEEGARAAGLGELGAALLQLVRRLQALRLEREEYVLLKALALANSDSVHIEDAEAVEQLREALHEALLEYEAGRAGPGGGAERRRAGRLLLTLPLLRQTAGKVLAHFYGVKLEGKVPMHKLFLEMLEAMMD
von Hippel-Lindau disease tumor suppressor/Steroid hormone receptor ERR1 (Homo sapiens), sequence (P40337 whole entry, looked up): as the sequence (P40337 whole entry) above

[21] = molecular target: T8, von Hippel-Lindau disease tumor suppressor/Estrogen receptor; test: Protac activity at ER/VHL (unknown origin) degradation in human MCF7 cells by immunoblotting analysis; format: cell-based
Target sequence in this assay (P40337 whole entry, one chain of several): as the sequence (P40337 whole entry) above

T1 sequence (P40337 whole entry, looked up, other chains not shown): as the sequence (P40337 whole entry) above

Question: `Cc1ncsc1-c1ccc(CNC(=O)[C@@H]2C[C@@H](O)CN2C(=O)[C@@H](NC(=O)COCCOCCOCCNC(=O)C[C@@H]2N=C(c3ccc(Cl)cc3)c3c(sc(C)c3C)-n3c(C)nnc32)C(C)(C)C)cc1` was tested. Which Emax [1] did it give?
Answer: > 90%

Question: What about the Activity [2] of the same molecule?
Answer: 90%

Question: What about the Emax [3] of the same molecule?
Answer: > 90%

Question: What about the Emax [4] of the same molecule?
Answer: > 90%

Question: Which results are given for `Cc1ncsc1-c1ccc(CNC(=O)[C@@H]2C[C@@H](O)CN2C(=O)[C@@H](NC(=O)C2(F)CC2)C(C)(C)C)c(OCCOc2ccc(CN3CCN(c4cc(-c5ccccc5O)nnc4N)CC3)cc2)c1`?
Answer: IC50 [5]: 28 nM; DC50 [6]: 6 nM; DC50 [7]: 6 nM; DC50 [8]: 11 nM; Emax [9]: 100%

Question: Which Activity [10] does the source give for `COc1cc(C(=O)O)ccc1NC(=O)[C@@H]1N[C@@H](CC(C)(C)C)[C@](C#N)(c2ccc(Cl)cc2F)[C@H]1c1cccc(Cl)c1F` [IDASANUTLIN] here?
Answer: 64%

Question: Which DC50 [11] does the source give for `COc1ccc(C2=N[C@H](c3ccc(Cl)cc3)[C@H](c3ccc(Cl)cc3)N2C(=O)N2CCN(CC(=O)NCCOCCOCCOCC(=O)Nc3ccc(OC[C@](C)(O)C(=O)Nc4ccc([N+](=O)[O-])c(C(F)(F)F)c4)cc3)C(=O)C2)c(OC(C)C)c1` here?
Answer: 10000 nM

Question: Which results are given for `CC/C(=C(\c1ccc(O)cc1)c1ccc(OCCN(C)C(=O)COCCOCCOCCOc2cccc(C(=O)c3csc([C@@H]4CCCN4C(=O)[C@@H](NC(=O)[C@H](C)NC)C4CCCCC4)n3)c2)cc1)c1ccccc1`?
Answer: DC50 [12]: 1000 nM; Emax [13]: > 70%; Emax [14]: 50%; Emax [15]: > 70%

Question: Which results are given for `CC(=O)N[C@H](C(=O)N1C[C@@H](O)C[C@H]1C(=O)NCc1ccc(-c2scnc2C)cc1)C(C)(C)SCCCCCNC(=O)C[C@@H]1N=C(c2ccc(Cl)cc2)c2c(sc(C)c2C)-n2c(C)nnc21`?
Answer: DC50 [16]: 10 nM; Emax [4]: > 90%

Question: Which DC50 [17] does the source give for `Cc1ncsc1-c1ccc([C@H](C)NC(=O)[C@@H]2C[C@@H](O)CN2C(=O)[C@@H](NC(=O)COCCCOCCNC(=O)C[C@@H]2N=C(c3ccc(Cl)cc3)c3c(sc(C)c3C)-n3c(C)nnc32)C(C)(C)C)cc1` here?
Answer: < 1 nM

Question: And the Emax [4]?
Answer: > 50%

Question: And the Emax [18]?
Answer: > 90%

Question: What does the source list for `COc1cc(/C=C2\SC(=O)N(CCOCCC(=O)N[C@H](C(=O)N3C[C@H](O)C[C@H]3C(=O)NCc3ccc(-c4scnc4C)cc3)C(C)(C)C)C2=O)ccc1Oc1ccc(C#N)cc1C(F)(F)F`?
Answer: Emax [19]: 86%; Emax [20]: > 86%; DC50 [21]: 100 nM

Question: Which results are given for `CC/C(=C(\c1ccc(O)cc1)c1ccc(OCCN(C)C(=O)COCCOCCOCCOc2ccc(O[C@H]3C[C@@H](C(=O)N[C@@H]4CCCc5ccccc54)N(C(=O)[C@@H](NC(=O)[C@H](C)NC)C4CCCCC4)C3)cc2)cc1)c1ccccc1`?
Answer: DC50 [12]: 1000 nM; Emax [13]: > 70%; Emax [15]: > 80%
